Test results published in patent US20220008451A1, “FLAVIN ADENINE DINUCLEOTIDE (FAD) FOR USE IN THE PREVENTION AND/OR TREATMENT OF CANCER” (priority 2018, published 2022).

How the values were obtained:
MIA Paca-2 cells = assay: MIA Paca-2 MTT viability test; format: cell-based, human; details: 120 μM/L, 2 hours
Experimental: (§1) MIA Paca-2 cells are human pancreatic cancer cells [American Tissue Cell Culture (ATCC, Manassas, Va., USA)] cultured in DMEM medium. The MTT viability test is performed at a cell density of 0.1×10*6 cells/mL. The tested products are incubated for 2 hours at a concentration of 120 μM/L and in triplicate, with culture control (ref: Blank) (100%) and a positive DMSO control (5%). Under these conditions, cell viability is 34% in the presence of FAD alone, 6% with FAD-PEG.

[1] = tested on: Monocytes isolated from peripheral blood (PBMC); assay: Viability of non-cancerous peripheral blood monocytes (PBMC); format: cell-based
[2] = tested on: CEM (myeloid leukaemia) cells; assay: Viability of CEM myeloid leukaemia cells; format: cell-based; details: 48 hours incubation; read-out: mean IC50, viability of cancer cells in the lineage
cancer cells in culture = assay: Growth inhibition of cancer cells in culture; format: cell-based; details: read-out: inhibitory concentration (IC50) reducing growth of cancer cells in culture by 50%
[3] = tested on: Nucleo PyroPhosphatase enzyme; assay: Protection of FAD against Nucleo PyroPhosphatase hydrolysis (HPLC); format: in vitro ADME; details: 25° C.
Experimental: FAD protection in particles in comparison with unbound FAD is studied. Different particles containing FAD are compared to unbound FAD: • The FAD encapsulated with a gold FAD-PEG particle ON is obtained by the ON method described in example 2. • The FAD encapsulated with a gold-FAD-PEG particle IN is obtained by the IN method obtained in example 1. The different particles and the unbound FAD are each placed in a solution of the Nucleo PyroPhosphatase enzyme at 25° C. The concentration of the FAD is monitored over time by HPLC assay.

[4] = tested on: HT22 cells (murine brain tumour); assay: HT22 growth inhibition, MTS test; format: cell-based
Experimental: HT22 cells (murine brain tumour) are tested with the gold-FAD-PEG particle obtained by the IN method.

[5] = MIA Paca-2 MTT viability test; format: cell-based, human; details: human, MIA Paca-2 cells, read-out: cell viability
Experimental: as §1

[6] = Resistance to hydrolysis in serum; format: in vitro ADME; details: 20 hours
Experimental: A comparative hydrolysis test of unbound FAD and micrometer-sized FAD-PEG obtained in Example 7 is performed in serum to test resistance to enzymes.

[7] = tested on: HT-1080 fibrosarcoma cells; assay: Viability of HT-1080 cells; format: cell-based; details: Homo sapiens
[8] = tested on: HepG2 hepatocellular carcinoma; assay: Viability of HepG2 cells; format: cell-based; details: Homo sapiens
Huh-7replicon = assay: Viability of Huh-7replicon cells; format: cell-based
[9] = tested on: MiaPaCA2 pancreatic cancer; assay: Viability of MiaPaCA2 cells (Example 14); format: cell-based
DNA aptamer = assay: Intercalation in DNA aptamer grafted on gold nanoparticles; format: binding; details: 5 mg/ml, UV visible and RAMAN
Text: Small molecules with aromatic structures are intercalated into DNA, which is the case of some extremely powerful and effective drugs. The hypothesis that FAD intercalates into DNA has been tested using a DNA aptamer grafted onto the surface of nanoparticles (NP).
The aptamer used is a single-stranded, thiolated DNA sequence of formula 5′HS-TT TTTTTTTTTTTTTTCTTCTCTAGCTGAATAACCGGAAGTAACTCATCGTTTCGATGAGTTACTTCCGGTTATTCAGCTAGAGAAG 3′, grafted to the surface of gold nanoparticles in the presence of a catalyst agent (N-[3-(dimethylamino) propyl]-N′-ethylcarbodiimide/N-hydroxysuccinimide, Sigma-Aldrich) (EDC/NHS), 50 μL, of DNA with a ratio (40 mg/10 mg) to 5 ml of gold NP solution, to allow activation of the carboxylic group (PEG-COOH) on the surface of the nanoparticles for immobilisation of the aptamer by covalent bonds. The bond is made between the carboxyl group of the EDC/NHS-activated PEG and the NH2 groups of the aptamer.
The grafting of the DNA on the surface of the gold nanoparticles is verified by UV spectroscopy (UV-visible absorbance measurements).
The particles were then placed in the presence of FAD or FAG-PEG (5 mg/ml, two formulations) and DNA intercalation, detected and measured by two techniques: UV visible and by RAMAN spectroscopy.

[10] = tested on: murine breast cancer cell line 4T1; assay: 4T1 breast cancer model in mice; format: in vivo, BALB/c mice; details: compared to control groups
[11] = tested on: Mouse HEP 1-6 liver cancer cells; assay: HEP 1-6 liver cancer model in mice; format: in vivo
[12] = tested on: MCF7 (breast cancer) cancer cells; assay: MCF7 growth inhibition, MTS test; format: cell-based; details: 48 hours
Experimental: Growth inhibition of MCF7 (breast cancer) cancer cells is tested on MCF7 cells in culture for 48 hours in contact with the gold-FAD-PEG particle with or without a targeting agent obtained by the IN method. […] (Promega—Cell Titer Proliferation Assay).

In the case of `C[S+](C)[O-]` [DMSO, reference compound], the cell viability (MIA Paca-2 cells) is reported as 5%.

For `Cc1cc2nc3c(=O)[nH]c(=O)nc-3n(CC(O)C(O)C(O)COP(=O)(O)OP(=O)(O)OC[C@H]3O[C@@H](n4cnc5c(N)ncnc54)C(O)C3O)c2cc1C` (stereo partly drawn) [FAD, Flavin Adenine Dinucleotide], the IC50 ([1]; 48 hours incubation, read-out: IC50, viability of primary non-cancerous cells) was > 100 µM, the GI50 ([1]; normal blood monocytes PBM cells) was > 100 µM and the IC50 [2] was 1.6 µM. For the same compound, the IC50 (cancer cells in culture) was 0.5 to 5 µM, the “time to full hydrolysis of FAD” value [3] was ≤ 15 min and the IC50 ([4]; Mus musculus, HT-22, Example 14, read-out: IC50, viability of HT22 neuronal cancer cells) was 1.6 µM. The viability at 2 hours, 120 μM/L [5] was 34%, the hydrolysis in serum [6] was “almost completely hydrolyzed” and the IC50 [7] was 1.1 to 1.8 µM. For the same compound, the IC50 [8] was 1.1 to 1.8 µM, the IC50 (Huh-7replicon) was 1.1 to 1.8 µM and the “viability of the cells” value ([9]; 90 μM, 24 hours of exposure) was “significantly altered”. The IC50 ([9]; Homo sapiens, MIA PaCa-2, MiaPaCA2) was 10 µM, the DNA intercalation (DNA aptamer) was “intercalates to DNA” and the IL-10 content [10] was “significantly increased”. For the same compound, the “level of IL-1α” value [10] was “significantly reduced”, the “level of IL-1 β” value [10] was “significantly reduced” and the “level of IL-6” value [10] was “significantly reduced”. The “level of IL-12P70” value [10] was “significantly reduced”, the “level of TNF α” value [10] was “significantly reduced” and the “reduction in tumour volume” value [11] was 24%.

`CN[C@@H]1C[C@H]2O[C@@](C)([C@@H]1OC)n1c3ccccc3c3c4c(c5c6ccccc6n2c5c31)C(=O)NC4` [staurosporin, reference compound] gave a GI50 [12] of ~40 µM and a GI50 ([4]; read-out: 50% growth inhibition (GI 50), 48 hours, MTS) of 2.7 µM.
